From patent publication US20230357419A1, “METHODS FOR TREATING OR […] DISORDERS” (priority 2022, published 2023)

Key:
mice = details: intrathecal, 3 μg; cited from earlier work
C57BL/6J mice = test: Repeated nitroglycerin (NTG) administration-induced behavioral sensitization: facial mechanical thresholds (von Frey), hyperalgesic priming, facial pain score; type: in vivo, mouse; details: female C57BL/6J
Description: Repeated nitroglycerin (NTG) administration-induced behavioral sensitization: To model chronic migraine headache, mice received repetitive intraperitoneal (i.p.) injections of nitric oxide (NO) donor NTG (10 mg/kg and 10 ml/kg in saline with 1% propylene glycol) once every 2 days for 5 times as described previously. The control mice received vehicle (saline with 1% propylene glycol, 10 ml/kg) injections every 2 days. Facial mechanical thresholds were measured at baseline and two days after each injection (before the next treatment). After the facial mechanical threshold returned to the baseline level, mice received daily i.p. injections of low-dose NTG (0.1 mg/kg). Facial mechanical thresholds were measured every 2 days to assess hyperalgesic priming.
The hair on the mouse forehead (above and between the eyes) was shaved the day before testing. […] A positive response was determined by the following criteria as previously described: mouse vigorously stroked its face with the forepaw, head withdrawal from the stimulus, or head shaking. […]
Facial pain score—aversiveness to facial mechanical stimuli: To measure the aversiveness to facial mechanical stimuli, the responses of mice to individual von Frey filaments were scored based on the most aversive behavior they display: 0) no responses; 1) detection: eye squinting, facial skin crinkling and/or a small head shaking; 2) withdrawal: head withdrawal from the filament and/or forepaw stroking of face once; 3) vigorous forepaw stroking of face 2 or more times; and 4) vigorous head shaking and/or attacking the filament.
For C57BL/6J mice, responses were measured to 0.04 gram (g), 0.07 g and 0.16 g von Frey filaments (3 applications each in ascending order). […]
Mice received intraperitoneal (i.p.) injections of NTG (10 mg/kg) or vehicle (saline with 1% propylene glycol, 10 ml/kg) once every 2 days for 5 times as described previously. Facial mechanical thresholds were measured at baseline and two days after each injection. […]

SMILES: Cc1ccc2c(c1)C1(CCN(CCc3nc(-c4ccccc4)oc3C)CC1)OC(=O)N2 [RS504393]
- tibial fracture/cast immobilization-induced mechanical allodynia (mice): significantly attenuated tibial fracture/cast immobilization-induced mechanical allodynia
- NTG-induced acute or persistent facial skin hypersensitivity (C57BL/6J mice; 3 μg in 10 μl under periorbital skin, 30 minutes before and 24 hours post-NTG): did not reduce NTG-induced acute or persistent facial skin hypersensitivity
- facial mechanical threshold (NTG-induced persistent facial skin hypersensitivity) (C57BL/6J mice; 3 mg/kg i.p., 8 daily injections started after established hypersensitivity, day 5-11): returned to basal level after 2 days of RS504393 treatment
- hyperalgesic priming (low-dose NTG-induced facial skin hypersensitivity) (C57BL/6J mice; 3 mg/kg i.p., 8 daily injections, low-dose NTG day 20-28): low-dose NTG injections still produced robust facial skin hypersensitivity
